Measured values as given in PubChem BioAssay AID179 (DTP/NCI, 2004).
Active and inactive are the calls of the source.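 How the source made its calls: active means compounds giving half or more protection of infected cells from virus-caused growth loss, again on retest; inactive means the rest.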 Where a SMILES comes first, the peptide text is derived from it. [ ]: non-standard residue; d: D form. The star is where a group is joined. Phe(2-OMe) = COc1ccccc1C[CH](N)C(=O)O; Cbz = O=C(OCc1ccccc1)*; OBn = c1ccc(CO*)cc1

Tested on: CEM cells HIV-1 protection, formazan growth assay
Experiment: NCI AIDS Antiviral Assay
Details: for IC50: measured here: growth of uninfected CEM cells
Summary of the method: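 Protection of CEM cells against HIV-1 was scored from cell growth (soluble formazan) across five concentrations, with parallel uninfected cells. Lack of protection may reflect toxicity.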

Structure (SMILES) | EC50 | IC50 | outcome
CSc1nc(Br)nc2c1ncn2C1CC(Oc2ccc(C)cc2)C(COc2ccc(C)cc2)O1 (configuration not stated) | > 200 µM | 79.4 µM | 
CCN(CC)C(=S)N/N=C(\C)c1cccc(C)n1 | > 2 µM | 0.0132 µM | 
O=c1oc2ccccc2c(O)c1C(C/C(CCN1CCCC1)=N\Nc1ccccc1)c1ccccc1 (configuration not stated) | > 97.7 µM | 41.7 µM | 
COc1ccc(NC(=O)C(C#N)=C(SC)SC)cc1 | > 200 µM | 7.94 µM | 
CCCCCCCCCCCCS(=O)(=O)O (tested in a mixture with another compound) | > 200 µM | 107 µM | 
COC(=O)[C@@]12CN(C)[C@@H](C(C)(C)C)N1C(=O)OC2c1ccccc1 (some centres not stated) | > 200 µM | > 200 µM | 
O=C1OC2(c3ccccc31)c1ccccc1-c1ccccc12 | > 66.1 µM | > 66.1 µM | 
N#CC(C#N)=CC=C1c2ccccc2Sc2ccccc21 | > 18.2 µM | > 18.2 µM | 
COC(=O)C(Cc1ccccc1OC)NC(=O)C(CC(=O)OCc1ccccc1)NC(=O)OCc1ccccc1 (configuration not stated) (Cbz-Asp(OBn)-[Phe(2-OMe)]-OMe; configuration not given here) | > 200 µM | 30.2 µM | 
O=C1SCC(O)=C1/C=N/Nc1nc2ccccc2o1 | > 50.1 µM | 2.63 µM | 
NCC(=O)NC(CCCC(NC(=O)CN)P(=O)(O)O)P(=O)(O)O (configuration not stated) |  |  | inactive
CCN(CC)c1ccc(C(=C2C=CC(=[N+](CC)CC)C=C2)c2ccc(N(CC)CC)cc2)cc1 |  |  | inactive
CC(=O)OCC(CC[CH2][Sn]([Cl])([Cl])[c]1ccccc1)OC(C)=O (configuration not stated) |  |  | inactive
OC[C@H]1CCCC1O (some centres not stated) |  |  | inactive
O=C1CS(=O)(=O)C(c2cccc(Cl)c2)N1N1C(=O)CS(=O)(=O)C1c1cccc(Cl)c1 (configuration not stated) | > 200 µM | > 200 µM | 
CCC1C(=O)OCc2c1cc1n(c2=O)CCC12OCCO2 (configuration not stated) | > 851 µM | > 851 µM | 
COc1cccc(CCn2c(N)c(C(=O)O)c3ccc([N+](=O)[O-])cc3c2=O)c1 | > 200 µM | 24 µM | 
CCOC(=O)c1ccc(C(=O)/C(C#N)=C2\CCCN2)[nH]1 | > 200 µM | 89.1 µM | 
O=C1NC(=O)C(c2ccccc2)(c2ccccc2)N1 | > 372 µM | > 372 µM | 
CC(=O)O[C@]1(C)CCC2C(C)C(=O)OC2C2C(C)[C@@H](O)CC21 (some centres not stated) | > 200 µM | 34.7 µM | 
CC(=O)OC1Sc2ccccc2C(=O)N2CCCC12 (configuration not stated) | > 200 µM | > 200 µM | 
CC1(C)C=Cc2c(cc3oc4ccc5c(c4c(=O)c3c2O)C=CC(C)(C)O5)O1 | 36.3 µM | 50.1 µM | 
NC(CCCCNCC(N)C(=O)O)C(=O)O (configuration not stated) | > 933 µM | > 933 µM | 

Structure (SMILES) | EC50 | IC50 | outcome
C=CCCCC(C(=O)OCC)C(=O)OCC |  |  | inactive
CN1C(=O)N(C)C2SC(=NCc3ccccc3)NN2C1=O (configuration not stated) | > 85.1 µM | 81.3 µM | 
O=C1NN=C2CCCCCC12 (configuration not stated) | > 589 µM | > 589 µM | 
O=C(O)c1c2c(c(C(=O)O)c3ccccc13)-c1ccccc1-2 |  |  | inactive
Cn1cnc([N+](=O)[O-])c1Sc1nncc2[nH]cnc12 | 46.8 µM | > 200 µM | 
O=C(O)C12CC3CC(C1)C2C=C3P(=O)(O)O (configuration not stated) | > 1020 µM | > 1020 µM | 
C/C=C1/[C@@H]2C[C@H]3C4=Nc5ccccc5C4(C4[C@@H](O)ON3[C@@H]14)[C@@H]2C(=O)OC | > 200 µM | > 200 µM | 
CC(=O)c1ccc(NC(=O)C(=O)CC(=O)c2sc(-n3nc(-c4ccccc4)cc3-c3ccccc3)nc2C)cc1 | > 155 µM | > 155 µM | 
CCC(=O)NI1OC(=O)c2ccccc21 | > 200 µM | 81.3 µM | 
CN(C)CCCN1N=Nc2cccc3cccc1c23 |  |  | inactive
CCOC(=O)C(CC1OCCO1)C1=NC(C)(C)CC(C)O1 (configuration not stated) | > 200 µM | > 200 µM | 
Cc1ccccc1C1SCc2nc3ccccc3n21 (configuration not stated) |  |  | inactive
OCC(S)CS (configuration not stated) | > 151 µM | 72.4 µM | 
CC(=O)C(C)(O)C(OP(=O)(O)O)c1ccccc1 (configuration not stated) | > 200 µM | > 200 µM | 
COc1cc(NCc2ccc3nc(-c4ccccc4)c(N)nc3c2)cc(OC)c1OC | > 200 µM | 49 µM | 
CC1(C)CCCCCCC2OC2CCCCCC(C)(C)C1=O (configuration not stated) | > 200 µM | 38 µM | 
COc1ccc([C@H]2CC(=O)NCCCCN2)cc1 | > 200 µM | > 200 µM | 
N#C/C(N)=C(\C#N)NC=NCCO | > 200 µM | > 200 µM | 
C1CSC[C@H]2COC[C@@H](CSCCS1)S2 | > 631 µM | > 631 µM | 
CC1CCN(CC(=O)N2c3ccccc3Sc3cc4ccccc4cc32)CC1 | > 151 µM | > 151 µM | 
COC1/C=C/OC2(C)Oc3c(C)c(O)c4c(O)c(cc(OCC(=O)N(C)C(C)C)c4c3C2=O)NC(=O)/C(C)=C/C=C/C(C)C(O)C(C)C(O)C(C)C(OC(C)=O)C1C (configuration not stated) | > 200 µM | 38 µM | 
COc1cc2c(cc1OC)C(Cc1ccccc1CCCl)=NCC2 | > 200 µM | 29.5 µM | 
COc1c(O)c2c(=O)cc(OC)c3c4c(OC)cc(=O)c5c(O)c(OC)c(C[C@H](C)O)c(c(c1CC(C)O)c23)c54 (some centres not stated) |  |  | inactive

Structure (SMILES) | EC50 | IC50 | outcome
C=CCNC(=O)NCCCC(NC(C)=O)C(=O)NCc1ccccc1 (configuration not stated) | > 72.4 µM | > 72.4 µM | 
COc1ccc(CNc2nc3ccc(C(F)(F)F)cc3nc2-c2ccccc2)cc1OC | > 12 µM | > 12 µM | 
O=S1(=O)c2ccccc2N=C(c2ccccc2Cl)CC1c1ccc(F)cc1 (configuration not stated) | > 14.8 µM | 10.5 µM | 
CC/C(=C(\C#N)c1ccc(OC)cc1)c1ccc(N(C)C)cc1 | > 20 µM | 0.871 µM | 
O=C(O)[C@@H]1CSC(c2ccncc2)N1 (some centres not stated) | > 200 µM | > 200 µM | 
CC(C)(C)C1=CP(=O)(c2ccccc2)C=C(C(C)(C)C)N1 | > 200 µM | > 200 µM | 
COC1/C=C/OC2(C)Oc3c(C)c(O)c4c(O)c(cc(OCC(=O)N5C(C)CCC5C)c4c3C2=O)NC(=O)/C(C)=C/C=C/C(C)C(O)C(C)C(O)C(C)C(OC(C)=O)C1C (configuration not stated) | > 200 µM | 43.7 µM | 
O=C(Cc1ccccc1)NC(C(=O)c1ccccc1)c1ccccc1 (configuration not stated) | > 79.4 µM | > 79.4 µM | 
Cc1cc2c(s1)C(N)CC2=O (configuration not stated) | > 200 µM | > 200 µM | 
COC(=O)C12OC3CO[Si](C(C)C)(C(C)C)O[Si](C(C)C)(C(C)C)OC3C1Oc1nc(=O)ccn12 (configuration not stated) | > 200 µM | 35.5 µM | 
Cn1c(N)c(Br)c(=O)n(C)c1=O | > 200 µM | > 200 µM | 
CC(=O)/C(=C\C1=CCCO1)C(=O)Nc1ccccc1C | > 26.3 µM | > 26.3 µM | 
Cc1cc2c(cc1-c1cc3c(cc1C)C(C(C)C)=C(O)C(=O)/C3=C\Nc1c(C)n(C)n(-c3ccccc3)c1=O)/C(=C/Nc1c(C)n(C)n(-c3ccccc3)c1=O)C(=O)C(O)=C2C(C)C | > 200 µM | 34.7 µM | 
O=C(O)CSCc1cc2c(O)c(c1)Cc1cc(CSCC(=O)O)cc(c1O)Cc1cc(CSCC(=O)O)cc(c1O)Cc1cc(CSCC(=O)O)cc(c1O)C2 | > 22.4 µM | > 22.4 µM | 
CN(C)CCNC(=O)Cc1ccccc1Nc1c(Cl)cccc1Cl | > 200 µM | 30.2 µM | 
CCN(CC)CCn1c2ccccc2c(=O)c2c(OC)ccc(OC)c21 |  |  | inactive
CCOC(=O)c1c(SCCO)n(-c2ccccc2)c(=S)n(-c2ccccc2)c1=O | > 200 µM | > 200 µM | 
O=C1c2ccccc2C2(Br)C(=O)c3ccccc3C12 (configuration not stated) |  |  | inactive
CCc1ccccc1NC(=O)C(=O)CC(=O)c1sc(Nc2ccccc2Cl)nc1C | > 200 µM | 87.1 µM | 
CC1CC2NC(C)CC3NC(C)CC(N1)N32 (configuration not stated) | > 794 µM | > 794 µM | 
CSc1nc(C)c(CCCl)c(Cl)n1 |  |  | inactive
Cc1cn(C2CC(Sc3ccccn3)C(CO)O2)c(=O)[nH]c1=O (configuration not stated) | > 372 µM | 316 µM | 
Cc1ccc(S(=O)(=O)N/N=C2/CC3CCC2C3)cc1 (configuration not stated) | > 200 µM | > 200 µM | 

Structure (SMILES) | EC50 | IC50 | outcome
CSc1nnc2n1-c1ccccc1SCC2 | > 1000 µM | 389 µM | 
CC1OC(CC(=O)O)Cc2c1c(O)c1c(O)cc(-c3cc(=O)c4c(=O)c5c(c(=O)c=4c3=O)CC(CC(=O)O)OC5C)c(O)c1c2O (configuration not stated) |  |  | inactive
c1ccc2c(OCCSCCCCCCCCCCSCCOc3cccc4ccccc34)cccc2c1 | > 5.01 µM | > 5.01 µM | 
Cn1nnn2c(-c3ccccc3)nnc12 | > 891 µM | > 891 µM | 
COc1cc(OC)c(-n2[nH]c(=O)n(C)c2=O)c(OC)c1 | > 200 µM | > 200 µM | 
COC(=O)C(Cc1c[nH]c2ccccc12)NC(=O)C(Cc1cnc[nH]1)NC(=O)C1CCC(=O)N1C(=O)OCc1ccccc1 (configuration not stated) | > 200 µM | > 200 µM | 
COC(CC1(/C=C/O[Si](C(C)C)(C(C)C)C(C)C)C(=O)N(COCC[Si](C)(C)C)c2ccccc21)OC (configuration not stated) | > 200 µM | 36.3 µM | 
COc1ccc(Nc2c3sc4cc(OC)ccc4nc-3c3ccccc3c2=O)cc1 | > 100 µM | > 100 µM | 
Nc1ccc(/C=C/c2ccc(N)cc2S(=O)(=O)O)c(S(=O)(=O)O)c1 |  |  | inactive
COc1ccc(-c2cc(-c3ccccc3)c(C#N)c(=O)[nH]2)cc1 | > 61.7 µM | > 61.7 µM | 
CC(=O)C1C(=O)C(=O)N(c2ccccc2N2C(=O)C(=O)C(C(C)=O)C2=O)C1=O (configuration not stated) |  |  | inactive
O=C1/C(=C/c2cccs2)NC(=S)N1CN1CCOCC1 | > 200 µM | 34.7 µM | 
CC(=O)NCC1OC2COC(c3ccccc3)OC2C2N=C(c3ccccc3)OC12 (configuration not stated) |  |  | inactive
CC(NC(=O)C(N)CCC(=O)O)C(=O)NCP(=O)(O)O (configuration not stated) | > 200 µM | > 200 µM | 
CC1=NC(C)(CO)CO1 (configuration not stated) | > 200 µM | > 200 µM | 
CCOC(=O)c1c(SC(=O)c2cc(OC)c(OC)c(OC)c2)n(-c2ccccc2)c(=S)n(-c2ccccc2)c1=O | > 200 µM | 32.4 µM | 
Cc1ccc(S(=O)(=O)c2ccc(O)cc2)cc1 | > 200 µM | 129 µM | 
[N-]=[N+]=NC1(c2ccccc2)C(=O)C(Cl)=C(c2ccccc2)N(c2ccccc2)C1=O (configuration not stated) | > 200 µM | 126 µM | 
CN1CC=C(c2cccn2C)CC1 | > 200 µM | 132 µM | 
OC[C@H]1CC(c2nn[nH]n2)[C@H](O)[C@@H]1O (some centres not stated) | > 200 µM | > 200 µM | 
